According to patent US20250136553A1, “ACYLSULFONAMIDE KAT6A INHIBITORS” (Olema Pharmaceuticals, Inc., priority 2023, published 2025):

The molecules below were run against human-KAT6A (MYST domain 507-778 aa) (Homo sapiens (Human), UniProt Q92794) (assay: KAT6A biochemical assay (TR-FRET)). Settings: @ 1 μM; reported where IC50 could not be determined; read-out: Percent inhibition at specific concentration (KAT6A).
Source text: TR-FRET based methods were used for assaying compounds of the present invention for KAT6A enzyme inhibitory activity. TR-FRET is a homogeneous proximity assay where Europium-labelled anti-acetyl lysine antibody binds to the acetylated substrate labelled with biotin, which in turn binds to streptavidin-labelled APC fluorescence acceptor. Europium can transfer energy to APC in the complex and the interaction of two dye-labelled binding partners is detected by the energy transfer between a donor and an acceptor dye and the subsequent light emission by the acceptor dye. KAT6A transfer an acetyl group from acetyl CoA to lysine amino acids of histones/target proteins. […] The selected compound of the present invention and enzyme are incubated for 30 min on plate shaker at 300 rpm at 25° C. Next, 5 μL of substrate mix containing histone H4 peptide and acetyl-CoA in assay buffer is added to the plate. The final concentrations of H4 peptide and acetyl-CoA are 200 nM and 600 nM, respectively. Following 60 min reaction at 25° C. on plate shaker at 300 rpm, 5 μL of detection mix containing Europium-labelled anti-acetyl antibody and streptavidin-APC is added to the reaction wells. The plate is further incubated at 25° C. on shaker at 300 rpm and is read in TR-FRET mode (Ex:340 nm; Em: 615 nm and 665 nm) on a plate reader to achieve ˜5-7-fold activity. The percent inhibition was calculated from the ratio of the fluorescence (FL) intensities [(F665/F615)×10000) using the formula […]. IC50 values of the compounds were determined by fitting the dose-response data to sigmoidal curve fitting equation using Graph pad prism software V9.

human-KAT6A (MYST domain 507-778 aa), sequence (Q92794 507-778): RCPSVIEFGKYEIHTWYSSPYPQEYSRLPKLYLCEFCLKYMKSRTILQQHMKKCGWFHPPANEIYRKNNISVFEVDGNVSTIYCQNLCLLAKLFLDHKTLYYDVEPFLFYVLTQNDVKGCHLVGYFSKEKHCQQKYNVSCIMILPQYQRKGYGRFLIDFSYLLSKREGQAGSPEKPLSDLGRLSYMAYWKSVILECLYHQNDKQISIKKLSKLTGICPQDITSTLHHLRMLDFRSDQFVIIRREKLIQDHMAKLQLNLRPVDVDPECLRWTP

inhibition at 1 µM | Structure (SMILES)
35% | COc1cccc(OC)c1S(=O)(=O)NC(=O)c1ccc(Cn2cccn2)c(OC)c1OC [Compound 41, 4-((1H-pyrazol-1-yl)methyl)-N-((2,6-dimethoxyphenyl)sulfonyl)-2,3-dimethoxybenzamide]

Same assay, conditions: TR-FRET; histone H4 peptide 200 nM, acetyl-CoA 600 nM; read-out: KAT6A IC50

IC50 | Structure (SMILES)
10 nM | COc1ccc(C(C)(C)C)cc1S(=O)(=O)NC(=O)c1ccc(Cn2cccn2)c(C(F)(F)F)c1 [Compound 25, 4-((1H-pyrazol-1-yl)methyl)-N-((5-(tert-butyl)-2-methoxyphenyl)sulfonyl)-3-(trifluoromethyl)benzamide]
25 nM | COc1cc(C(=O)NS(=O)(=O)c2ccccc2OC)ccc1Cn1cccn1 [Compound 26, N-(2-methoxyphenyl)sulfonyl-3-methoxy-4-(pyrazol-1-ylmethyl)benzamide]
12 nM | COc1cc(C(=O)NS(=O)(=O)c2cc3c(cc2OC)CCC3)ccc1Cn1cccn1 [Compound 27, 4-((1H-pyrazol-1-yl)methyl)-3-methoxy-N-((6-methoxy-2,3-dihydro-1H-inden-5-yl)sulfonyl)benzamide]
19 nM | COc1cccc(OC)c1S(=O)(=O)NC(=O)c1ccc(Cn2cccn2)c(C2CC2)c1 [Compound 28, 4-((1H-pyrazol-1-yl)methyl)-3-cyclopropyl-N-((2,6-dimethoxyphenyl)sulfonyl)benzamide]
10 nM | COc1cc(C(=O)NS(=O)(=O)c2cc(C3CC3)ccc2OC)ccc1Cn1cccn1 [Compound 29, 4-((1H-pyrazol-1-yl)methyl)-N-((5-cyclopropyl-2-methoxyphenyl)sulfonyl)-3-methoxybenzamide]
11 nM | CCc1ccc(OC)c(S(=O)(=O)NC(=O)c2ccc(Cn3cccn3)c(OC)c2)c1 [Compound 30, 4-((1H-pyrazol-1-yl)methyl)-N-((5-ethyl-2-methoxyphenyl)sulfonyl)-3-methoxybenzamide]
44 nM | COc1cc(C(=O)NS(=O)(=O)c2ccc(C(F)(F)F)cc2OC)ccc1Cn1cccn1 [Compound 31, 4-((1H-pyrazol-1-yl)methyl)-3-methoxy-N-((2-methoxy-4-(trifluoromethyl)phenyl)sulfonyl)benzamide]
16 nM | COc1cc(C(=O)NS(=O)(=O)c2cc(C(F)(F)F)ccc2OC)ccc1Cn1cccn1 [Compound 32, 4-((1H-pyrazol-1-yl)methyl)-3-methoxy-N-((2-methoxy-5-(trifluoromethyl)phenyl)sulfonyl)benzamide]
10 nM | COc1cccc(OC)c1S(=O)(=O)NC(=O)c1ccc(Cn2cccn2)c(OC(F)(F)F)c1 [Compound 33, 4-((1H-pyrazol-1-yl)methyl)-N-((2,6-dimethoxyphenyl)sulfonyl)-3-(trifluoromethoxy)benzamide]
36 nM | COc1cccc(OC)c1S(=O)(=O)NC(=O)c1ccc(Cn2cccn2)c(C)c1 [Compound 34, 4-((1H-pyrazol-1-yl)methyl)-N-((2,6-dimethoxyphenyl)sulfonyl)-3-methylbenzamide]
30 nM | COc1cccc(OC)c1S(=O)(=O)NC(=O)c1ccc(Cn2cccn2)c(C(F)(F)F)c1 [Compound 35]
198 nM | COc1cc(C(=O)NS(=O)(=O)c2c(OC)cccc2-n2cccn2)ccc1Cn1cccn1 [Compound 36, 4-((1H-pyrazol-1-yl)methyl)-3-methoxy-N-((2-methoxy-6-(1H-pyrazol-1-yl)phenyl)sulfonyl)benzamide]
10 nM | COc1cccc(OC)c1S(=O)(=O)NC(=O)c1ccc(Cn2cccn2)c(OC(F)F)c1 [Compound 37, 4-((1H-pyrazol-1-yl)methyl)-3-(difluoromethoxy)-N-((2,6-dimethoxyphenyl)sulfonyl)benzamide]
24 nM | COc1cc(C(=O)NS(=O)(=O)c2cc(O)ccc2OC)ccc1Cn1cccn1 [Compound 39, 4-((1H-pyrazol-1-yl)methyl)-N-((5-hydroxy-2-methoxyphenyl)sulfonyl)-3-methoxybenzamide]
15 nM | COc1cccc(OC)c1S(=O)(=O)NC(=O)c1ccc(Cn2cccn2)c(C2CC2)c1F [Compound 40, 4-((1H-pyrazol-1-yl)methyl)-3-cyclopropyl-N-((2,6-dimethoxyphenyl)sulfonyl)-2-fluorobenzamide]
8 nM | COc1ccc(S(=O)(=O)NC(=O)c2ccc(Cn3cccn3)c(OC)c2)c(OC)c1 [Compound 42, 4-((1H-pyrazol-1-yl)methyl)-N-((2,4-dimethoxyphenyl)sulfonyl)-3-methoxybenzamide]
18 nM | COc1cc(OC)c(S(=O)(=O)NC(=O)c2ccc(Cn3cccn3)c(OC)c2)cc1F [Compound 43, 4-((1H-pyrazol-1-yl)methyl)-N-((5-fluoro-2,4-dimethoxyphenyl)sulfonyl)-3-methoxybenzamide]
9 nM | COc1cc(OC)c(S(=O)(=O)NC(=O)c2ccc(Cn3cccn3)c(OC)c2)cc1Cl [Compound 44, 4-((1H-pyrazol-1-yl)methyl)-N-((5-chloro-2,4-dimethoxyphenyl)sulfonyl)-3-methoxybenzamide]
10 nM | COc1cc(OC)c(S(=O)(=O)NC(=O)c2ccc(Cn3cccn3)c(OC)c2)cc1Br [Compound 45, N-(5-bromo-2,4-dimethoxy-phenyl)sulfonyl-3-methoxy-4-(pyrazol-1-ylmethyl)benzamide]
12 nM | COc1cc(C(=O)NS(=O)(=O)c2c(OC)ccc(Cl)c2OC)ccc1Cn1cccn1 [Compound 46, 4-((1H-pyrazol-1-yl)methyl)-N-((3-chloro-2,6-dimethoxyphenyl)sulfonyl)-3-methoxybenzamide]
9 nM | COc1cc(OC)c(S(=O)(=O)NC(=O)c2ccc(Cn3cccn3)c(OC)c2)c(OC)c1 [Compound 47, 4-((1H-pyrazol-1-yl)methyl)-3-methoxy-N-((2,4,6-trimethoxyphenyl)sulfonyl)benzamide]
51 nM | COc1cc(C(=O)NS(=O)(=O)c2c(OC)cccc2OC)c(OC)cc1Cn1cccn1 [Compound 48, 4-((1H-pyrazol-1-yl)methyl)-N-((2,6-dimethoxyphenyl)sulfonyl)-2,5-dimethoxybenzamide]
8 nM | COc1cccc(OC)c1S(=O)(=O)NC(=O)c1ccc(Cn2cccn2)c(Br)c1F [Compound 49, 4-((1H-pyrazol-1-yl)methyl)-3-bromo-N-((2,6-dimethoxyphenyl)sulfonyl)-2-fluorobenzamide]
96 nM | COc1cc(C(=O)NS(=O)(=O)c2c(OC)cccc2OC)ccc1COc1ncccn1 [Compound 50, N-((2,6-dimethoxyphenyl)sulfonyl)-3-methoxy-4-((pyrimidin-2-yloxy)methyl)benzamide]
51 nM | COc1cc(C(=O)NS(=O)(=O)c2ccccc2OC(F)F)ccc1Cn1cccn1 [Compound 51, 4-((1H-pyrazol-1-yl)methyl)-N-((2-(difluoromethoxy)phenyl)sulfonyl)-3-methoxybenzamide]
9 nM | COc1cc(C(=O)NS(=O)(=O)c2c(OC)cccc2OC2CC2)ccc1Cn1cccn1 [Compound 52, 4-((1H-pyrazol-1-yl)methyl)-N-((2-cyclopropoxy-6-methoxyphenyl)sulfonyl)-3-methoxybenzamide]
31 nM | COc1cc(C(=O)NS(=O)(=O)c2ccccc2OCc2ccccn2)ccc1Cn1cccn1 [Compound 53, 4-((1H-pyrazol-1-yl)methyl)-3-methoxy-N-((2-(pyridin-2-ylmethoxy)phenyl)sulfonyl)benzamide]
